In PubChem BioAssay (NCI):
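All cell lines were grown in 96-well plates and treated with compound for 48 hours. At the GI50, growth is halved. TGI: total growth inhibition.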

Experiments:
Experiment in all cases: DTP human tumour cell line panel, 48 h
786-0 renal = system: 786-0 renal
A498 renal = system: A498 renal
A549 NSCLC = system: A549 NSCLC
ACHN renal = system: ACHN renal
BT-549 breast = system: BT-549 breast
CAKI-1 renal = system: CAKI-1 renal
CCRF-CEM leukemia = system: CCRF-CEM leukemia
COLO 205 colon = system: COLO 205 colon
DU-145 prostate = system: DU-145 prostate
EKVX NSCLC = system: EKVX NSCLC
HCC-2998 colon = system: HCC-2998 colon
HCT-116 colon = system: HCT-116 colon
HCT-15 colon = system: HCT-15 colon
HL-60(TB) leukemia = system: HL-60(TB) leukemia
HOP-62 NSCLC = system: HOP-62 NSCLC
HOP-92 NSCLC = system: HOP-92 NSCLC
HS 578T breast = system: HS 578T breast
HT29 colon = system: HT29 colon
IGROV1 ovarian = system: IGROV1 ovarian
K-562 leukemia = system: K-562 leukemia
KM12 colon = system: KM12 colon
LOX IMVI melanoma = system: LOX IMVI melanoma
M14 melanoma = system: M14 melanoma
MALME-3M melanoma = system: MALME-3M melanoma
MCF7 breast = system: MCF7 breast
MDA-MB-231 breast = system: MDA-MB-231 breast
MDA-MB-435 = system: MDA-MB-435
MOLT-4 leukemia = system: MOLT-4 leukemia
NCI-H226 lung = system: NCI-H226 lung
NCI-H23 lung = system: NCI-H23 lung
NCI-H460 lung = system: NCI-H460 lung
NCI-H522 lung = system: NCI-H522 lung
NCI/ADR-RES ovarian = system: NCI/ADR-RES ovarian
OVCAR-3 ovarian = system: OVCAR-3 ovarian
OVCAR-4 ovarian = system: OVCAR-4 ovarian
OVCAR-5 ovarian = system: OVCAR-5 ovarian
OVCAR-8 ovarian = system: OVCAR-8 ovarian
PC-3 prostate = system: PC-3 prostate
RPMI-8226 leukemia = system: RPMI-8226 leukemia
SF-268 CNS = system: SF-268 CNS
SF-295 CNS = system: SF-295 CNS
SF-539 CNS = system: SF-539 CNS
SK-MEL-2 melanoma = system: SK-MEL-2 melanoma
SK-MEL-28 melanoma = system: SK-MEL-28 melanoma
SK-MEL-5 melanoma = system: SK-MEL-5 melanoma
SK-OV-3 ovarian = system: SK-OV-3 ovarian
SN12C renal = system: SN12C renal
SNB-19 CNS = system: SNB-19 CNS
SNB-75 CNS = system: SNB-75 CNS
SR leukemia = system: SR leukemia
SW-620 colon = system: SW-620 colon
T-47D breast = system: T-47D breast
TK-10 renal = system: TK-10 renal
U251 CNS = system: U251 CNS
UACC-257 melanoma = system: UACC-257 melanoma
UACC-62 melanoma = system: UACC-62 melanoma
UO-31 renal = system: UO-31 renal

Question: How did the GI50 (786-0 renal) turn out when CCNCCOc1ccc(/C(=C(/CC)c2ccc(Cl)cc2)c2ccc(OCCCN(C)C)cc2)cc1 was run?
Answer: 3.57 µM

Question: And the TGI (786-0 renal)?
Answer: 7.44 µM

Question: And the GI50 (A498 renal)?
Answer: 3.38 µM

Question: What about the TGI (A498 renal) of the same compound?
Answer: 6.98 µM

Question: And the GI50 (A549 NSCLC)?
Answer: 3.33 µM

Question: What about the TGI (A549 NSCLC) of the same compound?
Answer: 7.15 µM

Question: And the GI50 (ACHN renal)?
Answer: 4.41 µM

Question: And the TGI (ACHN renal)?
Answer: 8.02 µM

Question: And the GI50 (BT-549 breast)?
Answer: 3.45 µM

Question: And the TGI (BT-549 breast)?
Answer: 7.16 µM

Question: And the GI50 (CAKI-1 renal)?
Answer: 4.39 µM

Question: What about the TGI (CAKI-1 renal) of the same compound?
Answer: 8.05 µM

Question: What about the GI50 (CCRF-CEM leukemia) of the same compound?
Answer: 5.08 µM

Question: What about the TGI (CCRF-CEM leukemia) of the same compound?
Answer: 11.4 µM

Question: What about the GI50 (COLO 205 colon) of the same compound?
Answer: 3.13 µM

Question: And the TGI (COLO 205 colon)?
Answer: 7.84 µM

Question: And the GI50 (DU-145 prostate)?
Answer: 3.99 µM

Question: What about the TGI (DU-145 prostate) of the same compound?
Answer: 7.5 µM

Question: What about the GI50 (EKVX NSCLC) of the same compound?
Answer: 4.32 µM

Question: What about the TGI (EKVX NSCLC) of the same compound?
Answer: 8.1 µM

Question: What about the GI50 (HCC-2998 colon) of the same compound?
Answer: 3.93 µM

Question: And the TGI (HCC-2998 colon)?
Answer: 7.72 µM

Question: What about the GI50 (HCT-116 colon) of the same compound?
Answer: 2.78 µM

Question: And the TGI (HCT-116 colon)?
Answer: 6.48 µM

Question: What about the GI50 (HCT-15 colon) of the same compound?
Answer: 2.19 µM

Question: What about the TGI (HCT-15 colon) of the same compound?
Answer: 5.54 µM

Question: And the GI50 (HL-60(TB) leukemia)?
Answer: 5.83 µM

Question: What about the TGI (HL-60(TB) leukemia) of the same compound?
Answer: 11.1 µM

Question: And the GI50 (HOP-62 NSCLC)?
Answer: 4.24 µM

Question: And the TGI (HOP-62 NSCLC)?
Answer: 8.69 µM

Question: And the GI50 (HOP-92 NSCLC)?
Answer: 0.818 µM

Question: What about the TGI (HOP-92 NSCLC) of the same compound?
Answer: 4.47 µM

Question: What about the GI50 (HS 578T breast) of the same compound?
Answer: 3.26 µM

Question: And the TGI (HS 578T breast)?
Answer: 7.63 µM

Question: And the GI50 (HT29 colon)?
Answer: 0.98 µM

Question: And the TGI (HT29 colon)?
Answer: 3.79 µM

Question: And the GI50 (IGROV1 ovarian)?
Answer: 4.17 µM

Question: What about the TGI (IGROV1 ovarian) of the same compound?
Answer: 7.85 µM

Question: What about the GI50 (K-562 leukemia) of the same compound?
Answer: 0.933 µM

Question: And the TGI (K-562 leukemia)?
Answer: 2.43 µM

Question: What about the GI50 (KM12 colon) of the same compound?
Answer: 3.94 µM

Question: And the TGI (KM12 colon)?
Answer: 7.59 µM

Question: And the GI50 (LOX IMVI melanoma)?
Answer: 3.72 µM

Question: What about the TGI (LOX IMVI melanoma) of the same compound?
Answer: 7.37 µM

Question: And the GI50 (M14 melanoma)?
Answer: 4.3 µM

Question: And the TGI (M14 melanoma)?
Answer: 8.31 µM

Question: And the GI50 (MALME-3M melanoma)?
Answer: 3.95 µM

Question: And the TGI (MALME-3M melanoma)?
Answer: 7.57 µM

Question: And the GI50 (MCF7 breast)?
Answer: 1.3 µM

Question: What about the TGI (MCF7 breast) of the same compound?
Answer: 4.94 µM

Question: What about the GI50 (MDA-MB-231 breast) of the same compound?
Answer: 4.06 µM

Question: What about the TGI (MDA-MB-231 breast) of the same compound?
Answer: 7.73 µM

Question: And the GI50 (MDA-MB-435)?
Answer: 3.77 µM

Question: And the TGI (MDA-MB-435)?
Answer: 7.34 µM

Question: What about the GI50 (MOLT-4 leukemia) of the same compound?
Answer: 4.56 µM

Question: And the TGI (MOLT-4 leukemia)?
Answer: 9.41 µM

Question: What about the GI50 (NCI-H226 lung) of the same compound?
Answer: 3.74 µM

Question: What about the TGI (NCI-H226 lung) of the same compound?
Answer: 7.59 µM

Question: And the GI50 (NCI-H23 lung)?
Answer: 4.31 µM

Question: What about the TGI (NCI-H23 lung) of the same compound?
Answer: 8.15 µM

Question: And the GI50 (NCI-H460 lung)?
Answer: 3.9 µM

Question: And the TGI (NCI-H460 lung)?
Answer: 7.6 µM

Question: And the GI50 (NCI-H522 lung)?
Answer: 4 µM

Question: What about the TGI (NCI-H522 lung) of the same compound?
Answer: 8.04 µM

Question: What about the GI50 (NCI/ADR-RES ovarian) of the same compound?
Answer: 4.19 µM

Question: And the TGI (NCI/ADR-RES ovarian)?
Answer: 8.08 µM

Question: What about the GI50 (OVCAR-3 ovarian) of the same compound?
Answer: 3.46 µM

Question: What about the TGI (OVCAR-3 ovarian) of the same compound?
Answer: 6.87 µM

Question: And the GI50 (OVCAR-4 ovarian)?
Answer: 3.83 µM

Question: And the TGI (OVCAR-4 ovarian)?
Answer: 8.07 µM

Question: What about the GI50 (OVCAR-5 ovarian) of the same compound?
Answer: 4.07 µM

Question: What about the TGI (OVCAR-5 ovarian) of the same compound?
Answer: 7.67 µM

Question: And the GI50 (OVCAR-8 ovarian)?
Answer: 3.91 µM

Question: What about the TGI (OVCAR-8 ovarian) of the same compound?
Answer: 7.64 µM

Question: What about the GI50 (PC-3 prostate) of the same compound?
Answer: 4.01 µM

Question: And the TGI (PC-3 prostate)?
Answer: 9.01 µM

Question: And the GI50 (RPMI-8226 leukemia)?
Answer: 4.98 µM

Question: And the TGI (RPMI-8226 leukemia)?
Answer: 13.5 µM

Question: And the GI50 (SF-268 CNS)?
Answer: 3.89 µM

Question: And the TGI (SF-268 CNS)?
Answer: 7.92 µM

Question: And the GI50 (SF-295 CNS)?
Answer: 4.44 µM

Question: And the TGI (SF-295 CNS)?
Answer: 8.24 µM

Question: And the GI50 (SF-539 CNS)?
Answer: 3.97 µM

Question: And the TGI (SF-539 CNS)?
Answer: 7.51 µM

Question: And the GI50 (SK-MEL-2 melanoma)?
Answer: 4.13 µM

Question: What about the TGI (SK-MEL-2 melanoma) of the same compound?
Answer: 7.77 µM

Question: What about the GI50 (SK-MEL-28 melanoma) of the same compound?
Answer: 4.16 µM

Question: What about the TGI (SK-MEL-28 melanoma) of the same compound?
Answer: 7.78 µM

Question: What about the GI50 (SK-MEL-5 melanoma) of the same compound?
Answer: 4.51 µM

Question: What about the TGI (SK-MEL-5 melanoma) of the same compound?
Answer: 8.21 µM

Question: What about the GI50 (SK-OV-3 ovarian) of the same compound?
Answer: 4.36 µM

Question: What about the TGI (SK-OV-3 ovarian) of the same compound?
Answer: 8.34 µM

Question: What about the GI50 (SN12C renal) of the same compound?
Answer: 3.84 µM

Question: And the TGI (SN12C renal)?
Answer: 7.42 µM

Question: And the GI50 (SNB-19 CNS)?
Answer: 4.45 µM

Question: And the TGI (SNB-19 CNS)?
Answer: 8.21 µM

Question: And the GI50 (SNB-75 CNS)?
Answer: 3.68 µM

Question: What about the TGI (SNB-75 CNS) of the same compound?
Answer: 7.45 µM

Question: And the GI50 (SR leukemia)?
Answer: 2.98 µM

Question: And the TGI (SR leukemia)?
Answer: 8.52 µM

Question: And the GI50 (SW-620 colon)?
Answer: 1.75 µM

Question: What about the TGI (SW-620 colon) of the same compound?
Answer: 5.24 µM

Question: And the GI50 (T-47D breast)?
Answer: 3.05 µM

Question: And the TGI (T-47D breast)?
Answer: 7.55 µM

Question: And the GI50 (TK-10 renal)?
Answer: 3.99 µM

Question: And the TGI (TK-10 renal)?
Answer: 8.07 µM

Question: And the GI50 (U251 CNS)?
Answer: 3.17 µM

Question: What about the TGI (U251 CNS) of the same compound?
Answer: 6.61 µM

Question: And the GI50 (UACC-257 melanoma)?
Answer: 4.04 µM

Question: What about the TGI (UACC-257 melanoma) of the same compound?
Answer: 7.83 µM

Question: What about the GI50 (UACC-62 melanoma) of the same compound?
Answer: 4.48 µM

Question: And the TGI (UACC-62 melanoma)?
Answer: 8.22 µM

Question: And the GI50 (UO-31 renal)?
Answer: 3.32 µM

Question: What about the TGI (UO-31 renal) of the same compound?
Answer: 6.68 µM
